Data published in PubChem BioAssay (NCI).
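Growth conditions: 96-well plates. Treatment: test compound, 48 hours, 5 concentrations. Analysis: linear interpolation between bracketing concentrations; unreached endpoints set to highest concentration. GI50 marks 50% less growth. At the TGI there is no net growth.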

Assays:
Assay in all cases: NCI tumour cell line growth inhibition, 48 h; in the data active = GI50 below about 0.43 µM; inactive = the rest
786-0 renal = system: 786-0 renal
A498 renal = system: A498 renal
A549 NSCLC = system: A549 NSCLC
ACHN renal = system: ACHN renal
BT-549 breast = system: BT-549 breast
CAKI-1 renal = system: CAKI-1 renal
CCRF-CEM leukemia = system: CCRF-CEM leukemia
COLO 205 colon = system: COLO 205 colon
DU-145 prostate = system: DU-145 prostate
EKVX NSCLC = system: EKVX NSCLC
HCC-2998 colon = system: HCC-2998 colon
HCT-116 colon = system: HCT-116 colon
HCT-15 colon = system: HCT-15 colon
HL-60(TB) leukemia = system: HL-60(TB) leukemia
HOP-62 NSCLC = system: HOP-62 NSCLC
HOP-92 NSCLC = system: HOP-92 NSCLC
HS 578T breast = system: HS 578T breast
HT29 colon = system: HT29 colon
IGROV1 ovarian = system: IGROV1 ovarian
K-562 leukemia = system: K-562 leukemia
KM12 colon = system: KM12 colon
LOX IMVI melanoma = system: LOX IMVI melanoma
M14 melanoma = system: M14 melanoma
MALME-3M melanoma = system: MALME-3M melanoma
MCF7 breast = system: MCF7 breast
MDA-MB-231 breast = system: MDA-MB-231 breast
MDA-MB-435 = system: MDA-MB-435
MDA-MB-468 breast = system: MDA-MB-468 breast
MOLT-4 leukemia = system: MOLT-4 leukemia
NCI-H226 lung = system: NCI-H226 lung
NCI-H23 lung = system: NCI-H23 lung
NCI-H460 lung = system: NCI-H460 lung
NCI-H522 lung = system: NCI-H522 lung
NCI/ADR-RES ovarian = system: NCI/ADR-RES ovarian
OVCAR-3 ovarian = system: OVCAR-3 ovarian
OVCAR-4 ovarian = system: OVCAR-4 ovarian
OVCAR-5 ovarian = system: OVCAR-5 ovarian
OVCAR-8 ovarian = system: OVCAR-8 ovarian
PC-3 prostate = system: PC-3 prostate
RPMI-8226 leukemia = system: RPMI-8226 leukemia
RXF 393 renal = system: RXF 393 renal
SF-268 CNS = system: SF-268 CNS
SF-295 CNS = system: SF-295 CNS
SF-539 CNS = system: SF-539 CNS
SK-MEL-2 melanoma = system: SK-MEL-2 melanoma
SK-MEL-28 melanoma = system: SK-MEL-28 melanoma
SK-MEL-5 melanoma = system: SK-MEL-5 melanoma
SK-OV-3 ovarian = system: SK-OV-3 ovarian
SN12C renal = system: SN12C renal
SNB-19 CNS = system: SNB-19 CNS
SNB-75 CNS = system: SNB-75 CNS
SR leukemia = system: SR leukemia
SW-620 colon = system: SW-620 colon
T-47D breast = system: T-47D breast
TK-10 renal = system: TK-10 renal
U251 CNS = system: U251 CNS
UACC-257 melanoma = system: UACC-257 melanoma
UACC-62 melanoma = system: UACC-62 melanoma
UO-31 renal = system: UO-31 renal

O=C(N=Nc1c(O)[nH]c2ccc(Cl)cc12)c1ccc2nc(-c3ccc(Cl)cc3)[nH]c2c1
44.3 µM: TGI (T-47D breast)
> 57.7 µM: TGI (A549 NSCLC) | TGI (ACHN renal) | TGI (CAKI-1 renal) | TGI (DU-145 prostate) | TGI (EKVX NSCLC) | TGI (HCC-2998 colon) | TGI (HCT-116 colon) | TGI (HCT-15 colon) | TGI (HL-60(TB) leukemia) | TGI (HT29 colon) | TGI (IGROV1 ovarian) | TGI (K-562 leukemia) | TGI (KM12 colon) | TGI (M14 melanoma) | TGI (MCF7 breast) | TGI (NCI-H226 lung) | TGI (NCI-H460 lung) | TGI (NCI/ADR-RES ovarian) | TGI (OVCAR-3 ovarian) | TGI (OVCAR-5 ovarian) | TGI (OVCAR-8 ovarian) | TGI (PC-3 prostate) | TGI (RPMI-8226 leukemia) | TGI (SK-MEL-2 melanoma) | TGI (SK-MEL-5 melanoma) | TGI (SK-OV-3 ovarian) | TGI (SR leukemia) | TGI (SW-620 colon) | TGI (TK-10 renal) | TGI (UACC-257 melanoma) | TGI (UO-31 renal)
24 µM: TGI (HOP-62 NSCLC)
16.5 µM: TGI (MOLT-4 leukemia)
18.8 µM: TGI (OVCAR-4 ovarian)
10.7 µM: TGI (SNB-19 CNS)
10.5 µM: TGI (COLO 205 colon)
19.4 µM: TGI (RXF 393 renal)
21.2 µM: TGI (786-0 renal)
57 µM: TGI (A498 renal)
25.8 µM: TGI (BT-549 breast)
6.46 µM: TGI (U251 CNS)
41.3 µM: TGI (HS 578T breast)
inactive: GI50 (786-0 renal) 3.08 µM | GI50 (A498 renal) 18.4 µM | GI50 (A549 NSCLC) 29 µM | GI50 (ACHN renal) 23.5 µM | GI50 (BT-549 breast) 7.12 µM | GI50 (CAKI-1 renal) > 57.7 µM | GI50 (CCRF-CEM leukemia) 0.969 µM | GI50 (COLO 205 colon) 2.27 µM | GI50 (DU-145 prostate) 3.74 µM | GI50 (EKVX NSCLC) 16.6 µM | GI50 (HCC-2998 colon) 3.4 µM | GI50 (HCT-116 colon) 2.35 µM | GI50 (HCT-15 colon) > 57.7 µM | GI50 (HL-60(TB) leukemia) 10.1 µM | GI50 (HOP-62 NSCLC) 6.93 µM | GI50 (HOP-92 NSCLC) 8.67 µM | GI50 (HS 578T breast) 2.67 µM | GI50 (HT29 colon) 2.33 µM | GI50 (IGROV1 ovarian) 3.64 µM | GI50 (K-562 leukemia) 1.62 µM | GI50 (KM12 colon) > 57.7 µM | GI50 (LOX IMVI melanoma) 1.07 µM | GI50 (M14 melanoma) 3.82 µM | GI50 (MALME-3M melanoma) 2.27 µM | GI50 (MCF7 breast) 1.39 µM | GI50 (MDA-MB-231 breast) 1.51 µM | GI50 (MDA-MB-435) 2.05 µM | GI50 (MDA-MB-468 breast) 1.4 µM | GI50 (MOLT-4 leukemia) 1.42 µM | GI50 (NCI-H226 lung) 13.7 µM | GI50 (NCI-H23 lung) 2.22 µM | GI50 (NCI-H460 lung) 2.38 µM | GI50 (NCI-H522 lung) 3.73 µM | GI50 (NCI/ADR-RES ovarian) > 57.7 µM | GI50 (OVCAR-3 ovarian) 5.2 µM | GI50 (OVCAR-4 ovarian) 1.98 µM | GI50 (OVCAR-5 ovarian) 3.5 µM | GI50 (OVCAR-8 ovarian) 4.42 µM | GI50 (PC-3 prostate) 7.5 µM | GI50 (RPMI-8226 leukemia) > 57.7 µM | GI50 (RXF 393 renal) 2.99 µM | GI50 (SF-268 CNS) 1.78 µM | GI50 (SF-295 CNS) 2.97 µM | GI50 (SF-539 CNS) 2.11 µM | GI50 (SK-MEL-2 melanoma) 41.5 µM | GI50 (SK-MEL-28 melanoma) 6.25 µM | GI50 (SK-MEL-5 melanoma) > 57.7 µM | GI50 (SK-OV-3 ovarian) 15.5 µM | GI50 (SN12C renal) 2.53 µM | GI50 (SNB-19 CNS) 2.05 µM | GI50 (SNB-75 CNS) 1.74 µM | GI50 (SR leukemia) 3.29 µM | GI50 (SW-620 colon) 1.91 µM | GI50 (T-47D breast) 2 µM | GI50 (TK-10 renal) 40.9 µM | GI50 (U251 CNS) 1.75 µM | GI50 (UACC-257 melanoma) 40 µM | GI50 (UACC-62 melanoma) 4.64 µM | GI50 (UO-31 renal) > 57.7 µM
27.2 µM: TGI (NCI-H522 lung)
9.84 µM: TGI (NCI-H23 lung)
13.3 µM: TGI (MDA-MB-435)
4.39 µM: TGI (CCRF-CEM leukemia)
20.2 µM: TGI (SF-295 CNS)
10.6 µM: TGI (SF-268 CNS)
4.88 µM: TGI (MDA-MB-468 breast)
4.74 µM: TGI (MDA-MB-231 breast)
14 µM: TGI (SNB-75 CNS)
26.6 µM: TGI (UACC-62 melanoma)
49.7 µM: TGI (SK-MEL-28 melanoma)
10.9 µM: TGI (MALME-3M melanoma)
39 µM: TGI (HOP-92 NSCLC)
8.18 µM: TGI (SF-539 CNS)
33.2 µM: TGI (SN12C renal)
2.32 µM: TGI (LOX IMVI melanoma)
